# “Also recorded” adds a separate entry of the source.
# What was measured:
# [1] = tested on: memory impaired aged rats; experiment: 6 hour-delay water maze spatial memory task in aged-impaired rats; type: in vivo, rat; settings: AI rats, FIG. 2
# Protocol: (§1) AI Rats were treated with sodium valproate (“VPA”) chronically and subcutaneously at a rate of 100 mg/kg/day via implanted osmotic minipump, and then trained and tested in a new water maze environment. The water maze used here was housed in a different building and was surrounded by black curtains with a novel set of white patterns. The training protocol used was based on a modified water maze task known to be highly hippocampal-dependent (de Hoz et al., 2005; Steele & Morris, 1999). Unlike the traditional water maze protocol (such as that used in the background assessment, described above) wherein the escape platform location remained constant throughout training, the escape platform location in this spatial memory version of the task varied from day to day.
# The test was comprised of a training phase followed by a memory retention test. Each day, during the training phase, rats were given six trials to locate the submerged escape platform. On each trial, a rat was released in the maze from one of four equally spaced starting positions around the perimeter of the pool. The starting position varied from trial to trial. […] The rat was then removed from the platform and placed in a holding cage for another 40 s before the next trial. The length of the path the rat took while swimming in the maze was measured in each trial. […]
# [2] = Blood total VPA level under chronic subcutaneous administration; type: in vivo, rat; settings: chronic subcutaneous administration of 100 mg/kg/day
# Protocol: as §1
# After the 6-hr waiting period, the rats were returned to the water maze for a test of spatial memory with the submerged platform located in the same position as in the training trials. Each rat was given 60 s to locate the platform. Rats were trained and tested in this manner for five consecutive days. Performances on the last three days were averaged for analysis. […] The chronic subcutaneous administration of 100 mg/kg/day VPA results in a blood total VPA level of 10 μg/ml plasma (10 μg/ml total VPA).
# [3] = tested on: Age-Impaired (AI) Long-Evans rats; experiment: 24 hour-delay Morris Water Maze memory retention trial in aged-impaired rats; type: in vivo, rat; settings: for spatial memory retention (time in target quadrant) in 24-hr retention trial: donepezil alone 0.5, 1.0 and 2.0 mg/kg i.p. before training
# Protocol: Age-Impaired (AI) Long-Evans rats (as characterized above) were tested for their memory of new spatial information in the MWM, under different drug/control treatment conditions: vehicle control, donezepil only, VPA only, and combination of VPA and donezepil. Donezepil was administered at a range of doses (0.5, 1.0 or 2.0 mg/kg) 30 minutes to 1 hour prior to training trials. VPA was administered chronically and subcutaneously at a rate of 100 mg/kg/day via implanted osmotic minipump.
# AI rats were given six training trials per training day with a 60-sec inter-trial interval between each training trial for two consecutive days. On each training trial, the rat was released in the maze from one of four equally spaced starting positions around the perimeter of the pool. […] 30 minutes to 1 hour prior to all the training trials on each training day, AI rats were pretreated with one of four drug conditions: 1) vehicle control (0.9% saline solution); 2) 0.5 mg/kg donpepzil; and 3) 1.0 mg/kg donpepzil; and 4) 2.0 mg/kg donpepzil through intraperitoneal (i.p.) injection.
# The same AI rats were used for the entire set of experiments so that each treatment condition was tested on each of the rats. Therefore, to counterbalance any potential bias, both the location of the escape platform and the spatial cues surrounding the water maze were different in the four treatment conditions. In other words, using one set of locations and spatial cues, two rats were treated with saline control solution, two with 0.5 mg/kg donpepzil, two with 1.0 mg/kg donpepzil and two with 2.0 mg/kg donpepzil. These groups were cycled through 3 more sets of locations and spatial cues, with each group of two receiving a different treatment each time, so that at the end, each treatment condition was tested in eight rats.
# After the completion of the twelve training trials (over the two days), the rats were returned to their home cages in the colony room for a 24-hr waiting period, in preparation for the subsequent memory retention test. After the waiting period, the rat was given one testing trial (the “retention trial”), which was the same MWM task as the training trials, but with the escape platform removed.
# For the retention trial, the MWM circular pool was divided into 4 quadrants. The particular quadrant where the escape platform was placed in the training trials is referred to as the “target quadrant”. The particular region where the platform was located in the training trials is referred to as the “target annulus”. In the retention trial, the time the AI rats spent swimming in the target quadrant was measured and further plotted as a percentage of total swimming time. The time the AI rats spend in the target annulus was also measured. […]
# [4] = tested on: muscarinic receptor; experiment: Muscarinic receptor-stimulated GTP-Eu binding assay on hippocampal membranes of treated rats; type: biochemical, rat; settings: chronic low dose valproate, memory impaired aged rats, vs vehicle treated; FIG. 1
# Protocol: Membrane preparation: Rats were decapitated and the hippocampus was dissected on ice then frozen at −80° C. All the tissue was stored in −80° C. and processed for GTP-Eu binding. For the GTP-Eu binding assay, membranes were prepared from frozen tissue by gentle homogenization with a Dounce homogenizer in five volumes of ice-cold 50 mM Tris buffer, pH 7.4, containing 0.2 mM EGTA and protease inhibitors. After centrifuging at 40,000×g at 4° C. for 10 min, the pellets were resuspended in 30 ml of ice-cold Tris buffer. The steps described above were repeated twice, and then the final pellets were resuspended in assay buffer (50 mM Tris, 0.2 mM EGTA, 5 mM MgCl2, and 100 mM NaCl, pH 7.4) (Zhang et al 2007).
# Muscarinic receptor-stimulated GTP-Eu binding assay. GTP-Eu binding was assessed using time-resolved fluorescence (Wallac 1420, Perkin-Elmer). The membranes and all the reagents were diluted with assay buffer. Samples were added into a 96-well filter plate in a counter-balanced manner based upon age and behavioral performance, although the experimenter was blind to the identification of the groups at the time of the assay. […] The integration of GTP-Eu into the membrane was measured by excitation of the samples at 340 nm and reading the emission at 615 nm using time-resolved fluorescence (Zhang et al 2007, Nicolle et al 1999). […]
Compound,"memory retention (forgetting, path length) after a 6-hr delay ([1]; VPA 100 mg/kg/day chronic s.c. minipump, vs saline or VPA 50 mg/kg/day)","performance (path length) at the end of the training phase ([1]; chronic s.c. minipump, Trials 1-6, compared with saline)",blood total VPA level [2] [μg/ml plasma],"spatial memory retention in 24-hr retention trial ([3]; VPA only, 100 mg/kg/day chronic s.c. minipump, FIG. 3, 100 mg/kg/day)",muscarinic receptor-stimulated GTP-Eu binding in the hippocampus (percentage of young rat) [4],spatial memory retention (time in target quadrant) in 24-hr retention trial ([3]; FIG. 3),"spatial memory retention (time in target quadrant) in 24-hr retention trial ([3]; FIG. 3, listed as Donezepil)"
"CCCC(CCC)C(=O)[O-].[Na+] [VPA, sodium valproate]",showed less forgetting; also recorded: improved the performance,performed at a comparable level,10,no improvement seen,effectively restore post-synaptic muscarinic coupling; also recorded: increases muscarinic receptor-GTP-Eu binding,,
"COc1cc2c(cc1OC)C(=O)C(CC1CCN(Cc3ccccc3)CC1)C2 (stereo not shown) [donezepil, donepezil]",,,,,,did not significantly improve,no effect
